# Laboratory results published in patent publication US7763644B2, “Imidazole derivatives, processes for preparing them and their uses” (UCB Pharma, S.A., priority 2003, dated 2010).
# Entries after “also recorded” stand apart in the source; their conditions may differ.
# Columns and labels:
# [1] = target: T1, LBS (Rattus norvegicus, UniProt Q02563); experiment: Competition binding curves against [^3H]-compound 7, rat brain membranes
# T1 construct: from tissue; host or cells: rat brain (crude membranes)
# Method: FIGS. 2a and 2b depict competition binding curves showing that compound 7 binds to LBS with about 30 fold higher affinity than levetiracetam. […] (M). Test drugs are levetiracetam (2a) and compound 7 (2b).
# Binding experiments were conducted on crude rat brain membranes at 4° C. as described in Noyer M. et al. (Euro. J. Pharmacol. (1995), 286, 137-146). Incubation time for equilibrium studies was 120 min. […] The Bmax being similar to the value estimated using [^3H]-L059 as radioligand in similar membrane preparations (5 pmol/mg protein).
# [2] = target: T2, hSV2C (Homo sapiens, UniProt Q496J9); experiment: IC50 of unlabelled ligands against SV2C, [^3H]-compound 7 as probe; format: binding; conditions: [^3H]-compound 7 as labeled probe, FIG. 6
# T2 construct: expressed in transfected cells; host or cells: COS-7 (transient transfection)
# T2 sequence (Q496J9 1-727): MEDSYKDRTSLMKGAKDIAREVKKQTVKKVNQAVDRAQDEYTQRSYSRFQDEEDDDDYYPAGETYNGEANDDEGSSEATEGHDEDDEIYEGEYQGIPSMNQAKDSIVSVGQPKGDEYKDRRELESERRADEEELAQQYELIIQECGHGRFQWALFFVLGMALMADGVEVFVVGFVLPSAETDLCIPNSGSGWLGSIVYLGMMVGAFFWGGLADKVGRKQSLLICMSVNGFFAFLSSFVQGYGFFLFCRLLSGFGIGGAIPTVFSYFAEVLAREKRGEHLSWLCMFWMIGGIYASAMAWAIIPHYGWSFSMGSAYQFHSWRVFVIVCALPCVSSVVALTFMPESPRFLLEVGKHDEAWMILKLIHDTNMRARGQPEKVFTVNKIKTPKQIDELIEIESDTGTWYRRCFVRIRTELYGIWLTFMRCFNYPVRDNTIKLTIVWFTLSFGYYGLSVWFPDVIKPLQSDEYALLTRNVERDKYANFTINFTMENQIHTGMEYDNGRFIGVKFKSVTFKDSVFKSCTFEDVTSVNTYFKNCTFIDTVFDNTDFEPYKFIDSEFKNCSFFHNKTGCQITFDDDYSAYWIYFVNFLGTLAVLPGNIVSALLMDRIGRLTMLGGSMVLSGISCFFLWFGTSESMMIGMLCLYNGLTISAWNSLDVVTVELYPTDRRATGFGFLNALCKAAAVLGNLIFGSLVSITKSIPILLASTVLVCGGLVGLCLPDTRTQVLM
# Text: (M). Depicted are the IC50 curves of compound 7 binding to hSV2A (x) and hSV2C (□), and compound Z binding to hSV2A (▪) and hSV2C (⋄).
# (§1) This confirms that labeled-compound Z has poor affinity for utilizing as a probe against SV2C, and that labeled-compound 7 is a preferred probe to utilize in screening against SV2C.
# [3] = target: T3, LBS/SV2A (Rattus norvegicus, UniProt Q02563); experiment: Photolabelling of LBS in rat brain membranes, SDS-PAGE; format: binding; conditions: UV irradiated rat brain membranes, gel slicing
# T3 construct: from tissue; host or cells: rat brain (crude membranes)
# Text: Y-axis represents the radioactivity (DPM) in gel slices and X-axis represents the gel slice number. Each number and arrow in the graph represents the position and the size in kilodaltons of molecular weight standards.
# This example provides a photoactivable ligand for labelling SV2A/LBS and its detection in biological samples. This ligand was designed to cross-link to the LBS/SV2A with an azidophenyl motif capable of forming a covalent complex with the protein upon UV light irradiation.
# [4] = tested on: untransfected cells; experiment: Radioligand binding to untransfected COS-7 cells; conditions: FIG. 5, bars 2
# [5] = target: T2, hSV2C; experiment: Radioligand binding to COS-7 cells transfected with SV2C; conditions: displaced by excess levetiracetam, FIG. 5
# Text: as §1
# [6] = target: human SV2A (Homo sapiens, UniProt Q7L0J3); experiment: Radioligand binding to SV2A under standard conditions
# Text: as §1
# T1 sequence (Q02563 whole entry): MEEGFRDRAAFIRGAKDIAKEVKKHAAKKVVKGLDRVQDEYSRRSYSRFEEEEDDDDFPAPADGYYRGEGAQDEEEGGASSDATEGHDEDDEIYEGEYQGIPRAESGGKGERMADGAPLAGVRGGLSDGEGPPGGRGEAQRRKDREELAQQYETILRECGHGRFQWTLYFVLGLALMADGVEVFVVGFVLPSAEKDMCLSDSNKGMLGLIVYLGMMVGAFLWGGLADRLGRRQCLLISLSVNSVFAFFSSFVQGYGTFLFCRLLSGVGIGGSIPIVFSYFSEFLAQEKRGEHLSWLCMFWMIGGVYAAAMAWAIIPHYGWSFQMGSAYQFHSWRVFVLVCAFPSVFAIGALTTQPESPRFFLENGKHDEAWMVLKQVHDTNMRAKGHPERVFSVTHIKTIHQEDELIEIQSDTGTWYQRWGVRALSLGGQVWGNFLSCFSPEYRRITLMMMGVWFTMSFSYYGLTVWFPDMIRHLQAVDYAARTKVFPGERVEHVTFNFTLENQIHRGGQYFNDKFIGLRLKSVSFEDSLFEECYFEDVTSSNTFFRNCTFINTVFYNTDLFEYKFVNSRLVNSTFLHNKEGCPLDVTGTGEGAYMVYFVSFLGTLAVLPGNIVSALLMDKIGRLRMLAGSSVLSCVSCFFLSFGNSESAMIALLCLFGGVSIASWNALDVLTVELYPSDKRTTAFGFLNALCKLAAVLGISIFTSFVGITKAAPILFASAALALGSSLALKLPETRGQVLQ
# T3 sequence (Q02563 whole entry): as above
# Chain of human SV2A (Q7L0J3 whole entry): as the sequence (Q02563 whole entry) above, with E53D, A62S, A71T, D144E, T154A, S440G, A482S, V572I, L634M counted along it
compound,measurement,setting,value
"[N-]=[N+]=Nc1c(F)ccc(C2CC(=O)N(Cn3ccnc3)C2)c1F (single isomer, unassigned; (+)) [compound 7, (+)-4-(3-azido-2,4-difluorophenyl)-1-(1H-imidazol-1-ylmethyl)pyrrolidin-2-one]",fold higher affinity for LBS than levetiracetam (L059),[1]; FIG. 2,about 30 fold
same,Ki,[1]; rat brain membranes,31.6 nM
same,affinity to SV2C compared with SV2A (IC50 curves),[2],equivalent affinities
"[^3H]-(+)-4-(3-azido-2,4-difluorophenyl)-1-(1H-imidazol-1-ylmethyl)pyrrolidin-2-one [[^3H]-compound 7]",size of the protein the radiolabel incorporates into,[3],90 kDa
same,specific binding of radioligand in untransfected cells,[4],no specific binding
same,binding of radioligand to SV2C expressed in COS-7 cells,[5],specific binding; also recorded: binds well
"CC[C@@H](C(N)=O)N1CC(c2cccc(N=[N+]=[N-])c2)CC1=O (stereo partly drawn) [compound Z, (2S)-2-[4-(3-azidophenyl)-2-oxopyrrolidin-1-yl]butanamide]",affinity to SV2C compared with SV2A (IC50 curves),[2],different affinities; also recorded: much weaker affinity
"CC[C@@H](C(N)=O)N1CC(c2cccc(N=[N+]=[N-])c2)CC1=O (stereo partly drawn) [[^3H]-compound Z, reference compound]",binding of radioligand to SV2A,[6],binds well
same,binding of radioligand to SV2C expressed in COS-7 cells,[5],absence of specific binding; also recorded: lack of binding
